According to patent US11084829B2, “Ubiquitin-specific-processing protease 7 (USP7) modulators and uses thereof” (RAPT THERAPEUTICS, INC., priority 2018, dated 2021):

These compounds were tested against USP7 (Homo sapiens, UniProt Q93009) (assay: USP7 inhibitory potency (IC50)).
Type: biochemical
Method: Activity for compounds described herein is provided in Table 2, wherein potency levels are provided as follows: (Potency: USP7 IC50: A<0.01 μM; B=0.01-0.1 μM; C=>0.1 μM.

Chain of USP7 (Q93009 whole entry): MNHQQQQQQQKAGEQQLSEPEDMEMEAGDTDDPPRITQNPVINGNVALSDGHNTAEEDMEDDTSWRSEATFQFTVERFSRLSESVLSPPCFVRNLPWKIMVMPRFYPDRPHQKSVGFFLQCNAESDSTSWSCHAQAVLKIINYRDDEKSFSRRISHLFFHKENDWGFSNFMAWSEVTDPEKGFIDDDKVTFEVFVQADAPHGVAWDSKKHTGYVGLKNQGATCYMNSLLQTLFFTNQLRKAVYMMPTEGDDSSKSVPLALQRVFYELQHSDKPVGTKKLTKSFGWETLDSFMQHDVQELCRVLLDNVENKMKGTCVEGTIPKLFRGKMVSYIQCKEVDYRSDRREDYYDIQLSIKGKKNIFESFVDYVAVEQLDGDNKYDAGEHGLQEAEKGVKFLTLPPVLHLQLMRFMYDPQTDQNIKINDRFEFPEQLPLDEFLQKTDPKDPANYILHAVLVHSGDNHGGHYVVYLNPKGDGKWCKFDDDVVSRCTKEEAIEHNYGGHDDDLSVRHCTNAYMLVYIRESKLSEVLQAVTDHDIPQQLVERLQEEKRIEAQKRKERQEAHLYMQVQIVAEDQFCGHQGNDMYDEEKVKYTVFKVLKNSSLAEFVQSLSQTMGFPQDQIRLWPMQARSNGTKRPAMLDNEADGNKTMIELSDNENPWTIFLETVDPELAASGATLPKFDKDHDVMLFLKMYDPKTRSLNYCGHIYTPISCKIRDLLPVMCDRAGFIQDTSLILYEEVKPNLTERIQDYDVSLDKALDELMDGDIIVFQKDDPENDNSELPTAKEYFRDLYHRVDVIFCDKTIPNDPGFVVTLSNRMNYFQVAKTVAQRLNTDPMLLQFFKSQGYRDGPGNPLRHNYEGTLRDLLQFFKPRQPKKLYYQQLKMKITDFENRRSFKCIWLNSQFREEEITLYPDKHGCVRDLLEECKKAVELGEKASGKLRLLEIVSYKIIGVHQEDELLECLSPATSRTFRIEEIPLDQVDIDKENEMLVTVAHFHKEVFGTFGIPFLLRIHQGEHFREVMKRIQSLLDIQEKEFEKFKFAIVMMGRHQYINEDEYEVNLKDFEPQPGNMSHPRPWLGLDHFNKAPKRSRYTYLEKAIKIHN

Structure (SMILES)	IC50 [nM]
Cc1cc(Cl)cc(-c2ccnc3cc(CN4C(=O)CCC4=O)sc23)c1CN1[C@H](C)CNC[C@H]1C [Example 27, 1-((7-(5-chloro-2-(((2R,6R)-2,6-dimethylpiperazin-1-yl)methyl)-3-methylphenyl)thieno[3,2-b]pyridin-2-yl)methyl)pyrrolidine-2,5-dione]	10 to 100
Cc1cc(Cl)cc(-c2ccnc3cc(CN4C(=O)C5C(C4=O)C5(C)C)sc23)c1CN1[C@@H](C)CNC[C@@H]1C (stereo partly drawn) [Example 28, 3-((7-(5-chloro-2-(((2S,6S)-2,6-dimethylpiperazin-1-yl)methyl)-3-methylphenyl)thieno[3,2-b]pyridin-2-yl)methyl)-6,6-dimethyl-3-azabicyclo[3.1.0]hexane-2,4-dione]	< 10
Cc1cc(Cl)cc(-c2ccnc3cc(CN4C(=O)CCC4=O)sc23)c1CN1[C@@H](C)CN(C)C[C@@H]1C [Example 29, 1-((7-(5-chloro-3-methyl-2-(((2S,6S)-2,4,6-trimethylpiperazin-1-yl)methyl)phenyl)thieno[3,2-b]pyridin-2-yl)methyl)pyrrolidine-2,5-dione]	< 10
Cc1cc(Cl)cc(-c2ccnc3cc(CN4C(=O)CCC4=O)sc23)c1CN1[C@@H](C)CN(C(C)C)C[C@@H]1C [Example 30, 1-((7-(5-chloro-2-(((2S,6S)-4-isopropyl-2,6-dimethylpiperazin-1-yl)methyl)-3-methylphenyl)thieno[3,2-b]pyridin-2-yl)methyl)pyrrolidine-2,5-dione]	< 10
Cc1cc(Cl)cc(-c2ccnc3cc(CN4C(=O)C5CC5C4=O)sc23)c1CN1[C@@H](C)CN(C(C)C)C[C@@H]1C (stereo partly drawn) [Example 32, 3-((7-(5-chloro-2-(((2S,6S)-4-isopropyl-2,6-dimethylpiperazin-1-yl)methyl)-3-methylphenyl)thieno[3,2-b]pyridin-2-yl)methyl)-3-azabicyclo[3.1.0]hexane-2,4-dione]	< 10
Cc1cc(Cl)cc(-c2ccnc3cc(CN4C(=O)C5CC5C4=O)sc23)c1CN1C[C@H](C)NC[C@@H]1C (stereo partly drawn) [Example 33, 3-((7-(5-chloro-2-(((2S,5 S)-2,5-dimethylpiperazin-1-yl)methyl)-3-methylphenyl)thieno[3,2-b]pyridin-2-yl)methyl)-3-azabicyclo[3.1.0]hexane-2,4-dione]	< 10
Cc1cc(Cl)cc(-c2ccnc3cc(CN4C(=O)C5CC5C4=O)sc23)c1CN1C[C@@H](C)NC[C@H]1C (stereo partly drawn) [Example 34, 3-((7-(5-chloro-2-(((2R,5R)-2,5-dimethylpiperazin-1-yl)methyl)-3-methylphenyl)thieno[3,2-b]pyridin-2-yl)methyl)-3-azabicyclo[3.1.0]hexane-2,4-dione]	< 10
Cc1cc(Cl)cc(-c2ccnc3cc(CN4C(=O)C5CC5C4=O)sc23)c1C(=O)N1[C@@H](C)CNC[C@@H]1C (stereo partly drawn) [Example 35, 3-((7-(5-chloro-2-((2S,6S)-2,6-dimethylpiperazine-1-carbonyl)-3-methylphenyl)thieno[3,2-b]pyridin-2-yl)methyl)-3-azabicyclo[3.1.0]hexane-2,4-dione]	10 to 100
Cc1cc(Cl)cc(-c2ccnc3cc(CN4C(=O)C5CC5C4=O)sc23)c1CN1C[C@@H](C)NC[C@@H]1C (stereo partly drawn) [Example 36, 3-((7-(5-chloro-2-(((2S,5R)-2,5-dimethylpiperazin-1-yl)methyl)-3-methylphenyl)thieno[3,2-b]pyridin-2-yl)methyl)-3-azabicyclo[3.1.0]hexane-2,4-dione]	10 to 100
Cc1cc(Cl)cc(-c2ccnc3cc(CN4C(=O)C5CC5C4=O)sc23)c1CN1C[C@H](C)NC[C@H]1C (stereo partly drawn) [Example 37, 3-((7-(5-chloro-2-(((2R,5 S)-2,5-dimethylpiperazin-1-yl)methyl)-3-methylphenyl)thieno[3,2-b]pyridin-2-yl)methyl)-3-azabicyclo[3.1.0]hexane-2,4-dione]	< 10
Cc1cc(Cl)cc(-c2ccnc3cc(CN4C(=O)C5CC5C4=O)sc23)c1CN1CCCNCC1C (centres unmarked) [Example 38, 3-((7-(5-chloro-3-methyl-2-((2-methyl-1,4-diazepan-1-yl)methyl)phenyl)thieno[3,2-b]pyridin-2-yl)methyl)-3-azabicyclo[3.1.0]hexane-2,4-dione]	< 10
Cc1cc(Cl)cc(-c2ccnc3cc(CN4C(=O)C5C(C4=O)C5(C)C)sc23)c1CN1C[C@@H](C)NC[C@@H]1C (stereo partly drawn) [Example 39, 3-((7-(5-chloro-2-(((2S,5R)-2,5-dimethylpiperazin-1-yl)methyl)-3-methylphenyl)thieno[3,2-b]pyridin-2-yl)methyl)-6,6-dimethyl-3-azabicyclo[3.1.0]hexane-2,4-dione]	< 10
Cc1cc(Cl)cc(-c2ccnc3cc(CN4C(=O)C5CC5C4=O)sc23)c1CN1CCNC(=O)C1C (centres unmarked) [Example 40, 3-((7-(5-chloro-3-methyl-2-((2-methyl-3-oxopiperazin-1-yl)methyl)phenyl)thieno[3,2-b]pyridin-2-yl)methyl)-3-azabicyclo[3.1.0]hexane-2,4-dione]	10 to 100
Cc1cc(Cl)cc(-c2ccnc3cc(CN4C(=O)C5CC5C4=O)sc23)c1CN1CCCNC(C)C1 (centres unmarked) [Example 41, 3-((7-(5-chloro-3-methyl-2-((3-methyl-1,4-diazepan-1-yl)methyl)phenyl)thieno[3,2-b]pyridin-2-yl)methyl)-3-azabicyclo[3.1.0]hexane-2,4-dione]	10 to 100
C[C@@H]1CN(Cc2c(Cl)cc(Cl)cc2-c2ccnc3cc(CN4C(=O)C5CC5C4=O)sc23)[C@@H](C)CN1 (stereo partly drawn) [Example 43, 3-((7-(3,5-dichloro-2-(((2S,5R)-2,5-dimethylpiperazin-1-yl)methyl)phenyl)thieno[3,2-b]pyridin-2-yl)methyl)-3-azabicyclo[3.1.0]hexane-2,4-dione]	< 10
Cc1cc(Cl)cc(-c2ccnc3cc(CN4C(=O)CCC4=O)sc23)c1CN1C[C@@H](C)NC[C@@H]1C [Example 44, 1-((7-(5-chloro-2-(((2S,5R)-2,5-dimethylpiperazin-1-yl)methyl)-3-methylphenyl)thieno[3,2-b]pyridin-2-yl)methyl)pyrrolidine-2,5-dione]	< 10
Cc1cc(Cl)cc(-c2ccnc3cc(CN4C(=O)CCCC4=O)sc23)c1CN1C[C@@H](C)NC[C@@H]1C [Example 45, 1-((7-(5-chloro-2-(((2S,5R)-2,5-dimethylpiperazin-1-yl)methyl)-3-methylphenyl)thieno[3,2-b]pyridin-2-yl)methyl)piperidine-2,6-dione]	< 10
Cc1cc(Cl)cc(-c2ccnc3cc(Cn4c(=O)ccn(C)c4=O)sc23)c1CN1C[C@@H](C)NC[C@@H]1C [Example 46, 3-((7-(5-chloro-2-(((2S,5R)-2,5-dimethylpiperazin-1-yl)methyl)-3-methylphenyl)thieno[3,2-b]pyridin-2-yl)methyl)-1-methylpyrimidine-2,4(1H,3H)-dione]	< 10
C[C@H]1CNC[C@H](C)N1Cc1c(Cl)cc(Cl)cc1-c1ccnc2cc(CN3C(=O)C4CC4C3=O)sc12 (stereo partly drawn) [Example 47, 3-((7-(3,5-dichloro-2-(((2S,6S)-2,6-dimethylpiperazin-1-yl)methyl)phenyl)thieno[3,2-b]pyridin-2-yl)methyl)-3-azabicyclo[3.1.0]hexane-2,4-dione]	< 10
C[C@H]1CNC[C@H](C)N1Cc1c(Cl)cc(Cl)cc1-c1ccnc2cc(CN3C(=O)CCC3=O)sc12 [Example 48, 1-((7-(3,5-dichloro-2-(((2S,6S)-2,6-dimethylpiperazin-1-yl)methyl)phenyl)thieno[3,2-b]pyridin-2-yl)methyl)pyrrolidine-2,5-dione]	< 10
